US9334264B2, “NAMPT inhibitors” (AbbVie Inc., priority 2012, dated 2016)

Legend:
[1] = biological target: NAMPT (human, recombinant, C-terminally His-tagged) (Homo sapiens, UniProt P43490); assay: Time-Resolved Fluorescence Resonance Energy Transfer (TR-FRET) Binding Assay of NAMPT; details: absence of substrates; 6.8 nM NAMPT, 200 nM probe, equilibrated 3 hours
Protocol: Determination of the utility of compounds having Formula (I) as binders to and inhibitors of NAMPT was performed using Time-Resolved Fluorescence Resonance Energy Transfer (TR-FRET) binding assays.
Time-Resolved Fluorescence Resonance Energy Transfer (TR-FRET) Binding Assay of NAMPT
Test compounds were serially diluted (typically 11 half log dilutions) in neat DMSO to 50× final concentrations prior to dilution with assay buffer (50 mM HEPES (NaOH), pH 7.5, 100 mM NaCl, 10 mM MgCl2, 1 mM DTT, 1% Glycerol) to 3× and 6% DMSO. Six μL were transferred to 384-well low-volume plates (Owens Corning #3673). To this, 12 μL of a 1.5× solution containing enzyme, probe and antibody were added. Final concentrations in the 18 μL reactions were 1× assay buffer, 2% DMSO, 6.8 nM NAMPT (human, recombinant, C-terminally His-tagged), 200 nM probe (a potent nicotinamide-competitive inhibitor conjugated to Oregon Green 488) and 1 nM Tb-anti-His antibody (Invitrogen #PV5895). Reactions were equilibrated at room temperature for 3 hours prior to reading on an Envision multi-label plate reader (Perkin Elmer; Ex=337 nm, Em=520 and 495 nm). Time-resolved FRET ratios (Em520/Em495) were normalized to controls, plotted as a function of compound concentration and fit with the four-parameter logistic equation to determine IC50s.

NAMPT = NAMPT (Homo sapiens, UniProt P43490); assay: Time-Resolved Fluorescence Resonance Energy Transfer (TR-FRET) Binding Assay of NAMPT with PRPP; details: 200 μM PRPP and 2.5 mM ATP; 2 nM NAMPT, 2 nM probe, equilibrated 16 hours
Chain of NAMPT (P43490 whole entry): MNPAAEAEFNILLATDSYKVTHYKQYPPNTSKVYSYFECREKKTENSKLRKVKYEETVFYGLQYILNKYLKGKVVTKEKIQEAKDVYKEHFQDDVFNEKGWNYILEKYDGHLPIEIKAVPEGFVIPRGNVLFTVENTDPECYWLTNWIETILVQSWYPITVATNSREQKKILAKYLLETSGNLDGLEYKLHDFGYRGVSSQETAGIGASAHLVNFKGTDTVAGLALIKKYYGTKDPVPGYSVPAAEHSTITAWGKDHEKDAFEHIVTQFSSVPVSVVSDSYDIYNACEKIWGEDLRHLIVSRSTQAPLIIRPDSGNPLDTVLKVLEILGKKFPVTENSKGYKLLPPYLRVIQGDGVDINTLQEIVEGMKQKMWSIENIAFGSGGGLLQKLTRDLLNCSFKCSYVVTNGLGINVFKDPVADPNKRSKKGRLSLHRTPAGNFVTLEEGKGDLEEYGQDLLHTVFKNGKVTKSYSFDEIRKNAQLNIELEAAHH
Protocol: Time-Resolved Fluorescence Resonance Energy Transfer (TR-FRET) Binding Assay of NAMPT with PRPP
Compound handling and data processing were identical to the assay in the absence of substrates (above). Final concentrations were 1× assay buffer, 2% DMSO, 2 nM NAMPT, 2 nM probe, 1 nM Tb-anti-His antibody (Invitrogen #PV5895), 200 μM PRPP and 2.5 mM ATP. Reactions were equilibrated for 16 hours prior to measurement to allow for potential enzymatic modification of test compounds.

Chain of NAMPT (human, recombinant, C-terminally His-tagged) (P43490 whole entry): as above

| IC50 [1] [nM] | IC50 (NAMPT) [nM] | Compound |
| --- | --- | --- |
| 9800 | 0.492 | COCCC(=O)N(CCOC(C)C)c1ncc(C(=O)NCCCn2ccnc2)s1 [Example 179, N-[3-(1H-imidazol-1-yl)propyl]-2-{(3-methoxypropanoyl)[2-(propan-2-yloxy)ethyl]amino}-1,3-thiazole-5-carboxamide] |
| > 10000 | 22.3 | N#Cc1ccc(CN(C(=O)NCCC(N)=O)c2ncc(C(=O)NCCCn3ccnc3)s2)cc1 [Example 140, 2-{[(3-amino-3-oxopropyl)carbamoyl](4-cyanobenzyl)amino}-N-[3-(1H-imidazol-1-yl)propyl]-1,3-thiazole-5-carboxamide] |
| 8500 | 29.7 | O=C(NCCCn1ccnc1)c1cnc(N(Cc2ccc(F)cc2)C(=O)CN2CCCC(O)C2)s1 (stereo not drawn) [Example 41, 2-{(4-fluorobenzyl)[(3-hydroxypiperidin-1-yl)acetyl]amino}-N-[3-(1H-imidazol-1-yl)propyl]-1,3-thiazole-5-carboxamide] |
| 200 | 0.617 | CC(C)CCN(C(=O)[C@H](C)Oc1ccccc1)c1ncc(C(=O)NCCCn2ccnc2)s1 [Example 134, N-[3-(1H-imidazol-1-yl)propyl]-2-{(3-methylbutyl)[(2S)-2-phenoxypropanoyl]amino}-1,3-thiazole-5-carboxamide] |
| 2940 | 0.281 | COCCN(C(=O)CCc1cccnc1)c1ncc(C(=O)NCCCn2ccnc2)s1 [Example 183, N-[3-(1H-imidazol-1-yl)propyl]-2-{(2-methoxyethyl)[3-(pyridin-3-yl)propanoyl]amino}-1,3-thiazole-5-carboxamide] |
| > 10000 | 153 | N#Cc1ccc(CN(C(=O)NCCCC(=O)O)c2ncc(C(=O)NCCCn3ccnc3)s2)cc1 [Example 172, 4-{[(4-cyanobenzyl)(5-{[3-(1H-imidazol-1-yl)propyl]carbamoyl}-1,3-thiazol-2-yl)carbamoyl]amino}butanoic acid] |
| 281 | 19.6 | CC(C)N1CCN(CCN(Cc2ccc(F)cc2)c2ncc(C(=O)NCCCn3ccnc3)s2)CC1 [Example 10, 2-[(4-fluorobenzyl){2-[4-(propan-2-yl)piperazin-1-yl]ethyl}amino]-N-[3-(1H-imidazol-1-yl)propyl]-1,3-thiazole-5-carboxamide] |
| 6070 | 0.719 | CC(C)CCN(Cc1cccc(F)c1)c1ncc(C(=O)NCCCn2ccnc2)s1 [Example 56, 2-[(3-fluorobenzyl)(3-methylbutyl)amino]-N-[3-(1H-imidazol-1-yl)propyl]-1,3-thiazole-5-carboxamide] |
| > 10000 | 3.99 | CC1(C)CN(C(=O)N(Cc2ccc(F)cc2)c2ncc(C(=O)NCCCn3ccnc3)s2)CCO1 [Example 72, N-(4-fluorobenzyl)-N-(5-{[3-(1H-imidazol-1-yl)propyl]carbamoyl}-1,3-thiazol-2-yl)-2,2-dimethylmorpholine-4-carboxamide] |
| 1180 | 2.52 | CC(C)CC(=O)N(Cc1ccc(C#N)cc1)c1ncc(C(=O)NCCCn2ccnc2)s1 [Example 50, 2-[(4-cyanobenzyl)(3-methylbutanoyl)amino]-N-[3-(1H-imidazol-1-yl)propyl]-1,3-thiazole-5-carboxamide] |
| 95.6 | 0.774 | CC(C)CCN(C(=O)C(C)Oc1ccccc1)c1ncc(C(=O)NCCCn2ccnc2)s1 (stereo not drawn) [Example 77, N-[3-(1H-imidazol-1-yl)propyl]-2-[(3-methylbutyl)(2-phenoxypropanoyl)amino]-1,3-thiazole-5-carboxamide] |
| 3560 | 1.5 | COCCC(=O)N(Cc1scnc1C)c1ncc(C(=O)NCCCn2ccnc2)s1 [Example 99, N-[3-(1H-imidazol-1-yl)propyl]-2-{(3-methoxypropanoyl)[(4-methyl-1,3-thiazol-5-yl)methyl]amino}-1,3-thiazole-5-carboxamide] |
| 1250 | 3.02 | COCCC(=O)N(Cc1ccc(C)cn1)c1ncc(C(=O)NCCCn2ccnc2)s1 [Example 117, N-[3-(1H-imidazol-1-yl)propyl]-2-{(3-methoxypropanoyl)[(5-methylpyridin-2-yl)methyl]amino}-1,3-thiazole-5-carboxamide] |
| 5830 | 1.98 | COCC(COC)NC(=O)N(Cc1ccc(F)cc1)c1ncc(C(=O)NCCCn2ccnc2)s1 [Example 89, 2-{[(1,3-dimethoxypropan-2-yl)carbamoyl](4-fluorobenzyl)amino}-N-[3-(1H-imidazol-1-yl)propyl]-1,3-thiazole-5-carboxamide] |
| > 10000 | 107 | CC(=O)NCCNC(=O)N(Cc1ccc(C#N)cc1)c1ncc(C(=O)NCCCn2ccnc2)s1 [Example 145, 2-[{[2-(acetylamino)ethyl]carbamoyl}(4-cyanobenzyl)amino]-N-[3-(1H-imidazol-1-yl)propyl]-1,3-thiazole-5-carboxamide] |
| 334 | 0.714 | CC(C)CCN(C(=O)CC1CCOC1)c1ncc(C(=O)NCCCn2ccnc2)s1 (stereo not drawn) [Example 174, N-[3-(1H-imidazol-1-yl)propyl]-2-[(3-methylbutyl)(tetrahydrofuran-3-ylacetyl)amino]-1,3-thiazole-5-carboxamide] |
| > 10000 | 2.25 | CCC(CNC(=O)N(Cc1ccc(F)cc1)c1ncc(C(=O)NCCCn2ccnc2)s1)OC (stereo not drawn) [Example 90, 2-{(4-fluorobenzyl)[(2-methoxybutyl)carbamoyl]amino}-N-[3-(1H-imidazol-1-yl)propyl]-1,3-thiazole-5-carboxamide] |
| > 10000 | 1.33 | O=CN1CCN(CC(=O)N(Cc2ccc(F)cc2)c2ncc(C(=O)NCCCn3ccnc3)s2)CC1 [Example 32, 2-{(4-fluorobenzyl)[(4-formylpiperazin-1-yl)acetyl]amino}-N-[3-(1H-imidazol-1-yl)propyl]-1,3-thiazole-5-carboxamide] |
| > 10000 | 13.7 | CCOCC(O)CNC(=O)N(Cc1ccc(C#N)cc1)c1ncc(C(=O)NCCCn2ccnc2)s1 (stereo not drawn) [Example 143, 2-{(4-cyanobenzyl)[(3-ethoxy-2-hydroxypropyl)carbamoyl]amino}-N-[3-(1H-imidazol-1-yl)propyl]-1,3-thiazole-5-carboxamide] |
| 1500 | 1.47 | COCCC(=O)N(Cc1ccc(OC)nc1)c1ncc(C(=O)NCCCn2ccnc2)s1 [Example 98, N-[3-(1H-imidazol-1-yl)propyl]-2-{(3-methoxypropanoyl)[(6-methoxypyridin-3-yl)methyl]amino}-1,3-thiazole-5-carboxamide] |
| > 10000 | 3.53 | O=C(NCCCn1ccnc1)c1cnc(N(Cc2ccc(F)cc2)C(=O)N2CCC3(C2)OCCO3)s1 [Example 67, N-(4-fluorobenzyl)-N-(5-{[3-(1H-imidazol-1-yl)propyl]carbamoyl}-1,3-thiazol-2-yl)-1,4-dioxa-7-azaspiro[4.4]nonane-7-carboxamide] |
| > 10000 | 23.1 | CC(=O)NCC(C)CNC(=O)N(Cc1ccc(C#N)cc1)c1ncc(C(=O)NCCCn2ccnc2)s1 (stereo not drawn) [Example 141, 2-[{[3-(acetylamino)-2-methylpropyl]carbamoyl}(4-cyanobenzyl)amino]-N-[3-(1H-imidazol-1-yl)propyl]-1,3-thiazole-5-carboxamide] |
| 2250 | 0.693 | CC(C)CCNC(=O)N(Cc1ccc(F)cc1)c1ncc(C(=O)NCCCn2ccnc2)s1 [Example 63, 2-{(4-fluorobenzyl)[(3-methylbutyl)carbamoyl]amino}-N-[3-(1H-imidazol-1-yl)propyl]-1,3-thiazole-5-carboxamide] |
| 1150 | 0.6 | COCCC(=O)N(CCOC)c1ncc(C(=O)NCCCn2ccnc2)s1 [Example 175, N-[3-(1H-imidazol-1-yl)propyl]-2-[(2-methoxyethyl)(3-methoxypropanoyl)amino]-1,3-thiazole-5-carboxamide] |
| 4990 | 6.76 | COCCC(=O)N(Cc1ccc(C)nc1)c1ncc(C(=O)NCCCn2ccnc2)s1 [Example 113, N-[3-(1H-imidazol-1-yl)propyl]-2-{(3-methoxypropanoyl)[(6-methylpyridin-3-yl)methyl]amino}-1,3-thiazole-5-carboxamide] |
| 7020 | 0.833 | CC1CCN(CC(=O)N(Cc2ccc(F)cc2)c2ncc(C(=O)NCCCn3ccnc3)s2)CC1 [Example 28, 2-{(4-fluorobenzyl)[(4-methylpiperidin-1-yl)acetyl]amino}-N-[3-(1H-imidazol-1-yl)propyl]-1,3-thiazole-5-carboxamide] |
| 3200 | 1.72 | CCC(COC)NC(=O)N(Cc1ccc(F)cc1)c1ncc(C(=O)NCCCn2ccnc2)s1 (stereo not drawn) [Example 84, 2-{(4-fluorobenzyl)[(1-methoxybutan-2-yl)carbamoyl]amino}-N-[3-(1H-imidazol-1-yl)propyl]-1,3-thiazole-5-carboxamide] |
